Measured values: paper PMC12549899 (Nature Communications, 2025)
Changes are numbered by the printed parent chain. “And” between values parts separate entries of the source, which are not always exact repeats. Equal entries are not always repeated. “Also recorded” adds a separate entry of the source. Where two headings read alike, the source gives them in different places.

Experiments:
[1] = molecular target: T1, DrOTOP1 G130W (Danio rerio, UniProt Q7ZWK8, G130W); experiment: Whole-cell patch-clamp, inhibition of acid-evoked currents, DrOTOP1 G130W (outer site); format: cell-based, zebrafish (Danio rerio); conditions: DrOTOP1 G130W
T1 construct: A previously generated codon-optimized full-length DrOTOP1[8]; (UniProt: Q7ZWK8) construct; expressed in transfected cells; host or cells: HEK-293 (CRL-1573, ATCC)
T1 sequence (Q7ZWK8 1-586 G130W): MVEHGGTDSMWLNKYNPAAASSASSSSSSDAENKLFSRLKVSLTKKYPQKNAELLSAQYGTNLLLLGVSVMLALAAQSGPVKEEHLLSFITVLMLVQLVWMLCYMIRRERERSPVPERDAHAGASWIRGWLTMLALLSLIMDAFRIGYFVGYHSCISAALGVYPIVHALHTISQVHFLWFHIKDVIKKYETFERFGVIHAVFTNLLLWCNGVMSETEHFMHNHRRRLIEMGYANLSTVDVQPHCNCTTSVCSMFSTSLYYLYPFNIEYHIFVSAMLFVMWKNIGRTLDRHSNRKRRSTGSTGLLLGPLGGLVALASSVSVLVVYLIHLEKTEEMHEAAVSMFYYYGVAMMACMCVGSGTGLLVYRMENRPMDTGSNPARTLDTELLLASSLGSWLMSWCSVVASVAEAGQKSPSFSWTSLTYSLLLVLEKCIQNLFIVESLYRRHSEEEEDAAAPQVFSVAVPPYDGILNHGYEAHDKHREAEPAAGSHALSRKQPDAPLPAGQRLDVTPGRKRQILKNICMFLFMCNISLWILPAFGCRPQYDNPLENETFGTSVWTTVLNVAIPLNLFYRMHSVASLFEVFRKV
From the text: To functionally test the significance of the two binding sites identified by cryo-EM, we generated point mutations of DrOTOP1 using the binding poses and conformational changes observed in DrOTOP1_C2.2 to guide our mutations. As per the binding pose that best fits our cryo-EM density, C2.2 forms the following interactions in the outer site: hydrophobic packing against many non-polar residues W126, G130, M133, L134, F271, F570, and M573, and π-stacking with W532 (Fig. 5A). In addition, C2.2 could potentially form H-bonds with E267, if the sidechain is protonated or a water bridge is present, and with H574 if it moves closer (Fig. 5A). Likewise, C2.36 presents a heterocyclic nitrogen that can potentially form a H-bond with E267, similarly, provided a protonation or water bridge is present (Fig. 5B). In addition, C2.36 forms a T-shaped π-stacking interaction with H574, whose sidechain has rotated 90 degrees (compared to DrOTOP1_apo), presumably to accommodate the interaction (Fig. 5B). Considering other inhibitors discovered from the second round of screening, many contain functional groups like the carbonyl groups of Group 1 molecules and the heterocyclic nitrogen atoms of Group 2 molecules (Supplementary Fig. 3E), that can potentially form similar H-bonds with E267 as C2.2 and C2.36, assuming the binding modes are similar. In the central site, C2.2 binds with the following interactions: hydrophobic packing with residues V201, F271, A274, V278, and A388, π-stacking with F277, and H-bonding with E384 (Fig. 5C).
Each non-aromatic residue was mutated to tryptophan, which was expected to cause steric occlusion. […] This seemed appropriate given the small number of H-bonds in these pockets, the ambiguity of how the inhibitors fit the density, and the prevalence of hydrophobic packing interactions (Fig. 5A–C).
(§1) HEK-293 cells (CRL-1573, ATCC) were cultured in DMEM (Thermofisher 11995073) containing 10% fetal bovine serum (Life Technology 16000044) and Penicillin-Streptomycin (100 I.U./mL) and (100 µg/mL), respectively. Cells were transfected with WT DrOTOP1 or mutant DrOTOP1 channels in 35 mm petri dishes, with ~ 500 ng DNA and 2 μL TransIT-LT1 transfection reagent (Mirus Bio Corporation, Cat # MIR2300) following the manufacturer’s protocol. All constructs were subcloned into a pcDNA3.1 vector that adds an N-terminal fusion tag consisting of an octahistidine tag followed by eGFP, a Gly-Thr-Gly-Thr linker and a 3C protease cleavage site ([…]) followed by WT DrOTOP1, WT mOTOP1, WT hOTOP1, or mutated DrOTOP1. Point mutations were generated via In-Fusion Cloning (Takara) using single-stranded DNA primers generated through IDT and sequence confirmed by Sanger sequencing (GeneWiz).
(§2) Whole-cell patch-clamp recording was performed as previously described[6],[22],[25]. Recordings were made with an Axopatch 200B amplifier, digitized with a Digidata 1322a 16-bit data acquisition system, acquired with pClamp 8.2 and analyzed with Clampfit 10 (Molecular Devices). Recordings were sampled at 5 kHz and filtered at 1 kHz. Patch Pipettes with resistance of […] were fabricated from borosilicate glass, and only recordings with a giga-Ohm seal were used in analysis. Membrane potential was held at −80 mV for the duration of recordings. At the beginning of recordings and between, cells were washed with Tyrode’s solution (see below). Once a giga-Ohm seal was reached, cells were lifted and placed in front of microcapillary tubes controlled by a Fast-Step perfusion system (Warner Instruments) so that extracellular solutions could be rapidly exchanged during each experiment.
Standard Tyrode’s solution consisted of 145 mM NaCl, 5 mM KCl, MgCl2, 2 mM CaCl2, 20 mM D-Glucose, and 10 mM HEPES (for pH 7.4). All other extracellular patch-clamp solutions contained 160 mM NMDG-Cl, 2 mM CaCl2, and the following buffers: 10 mM HEPES (for pH 7.4), 10 mM MES (for pH 6.5-5.5), 10 mM CHES for pH 10, and 10 mM HomoPIPES for (pH 5.0). pH adjusted with HCl. […]

[2] = molecular target: T2, DrOTOP1 (Danio rerio, UniProt Q7ZWK8); experiment: Whole-cell patch-clamp, inhibition of acid-evoked currents, WT DrOTOP1 expressed in HEK-293 cells; format: cell-based, zebrafish (Danio rerio); conditions: for Inhibition of pH 5.5-induced currents, screen 1 / Inhibition of pH 5.5-induced currents, screen 2: 200 µM compound; for Inhibition of pH 5.5-induced currents, screen 1 / inhibition at 200 µM / Inhibition of pH 5.5-induced currents, screen 2: HEK-293 cells expressing DrOTOP1, Vm -80 mV, values of single cells; for Inhibition of pH 5.5-induced currents, screen 1: 200 µM; for inhibition at 200 µM: HEK293, pH 5.5, 200 µM compound
T2 construct: A previously generated codon-optimized full-length DrOTOP1[8]; (UniProt: Q7ZWK8) construct; expressed in transfected cells; host or cells: HEK-293 (CRL-1573, ATCC)
T2 sequence (Q7ZWK8 1-586): T1 sequence (Q7ZWK8 1-586 G130W) with W130G
From the text: The 50 molecules identified were individually tested by whole-cell patch-clamp electrophysiology for effects on DrOTOP1 expressed in human embryonic kidney (HEK)−293 cells. […] This approach enabled us to observe the on- and off-responses of each compound. To quantify the effect of each compound, we compared the current magnitude during compound application immediately before wash-off, to the peak inward current following its removal (Supplementary Fig. 2A).
as §1, §2
Standard Tyrode’s solution consisted of 145 mM NaCl, 5 mM KCl, MgCl2, 2 mM CaCl2, 20 mM D-Glucose, and 10 mM HEPES (for pH 7.4). All other extracellular patch-clamp solutions contained 160 mM NMDG-Cl, 2 mM CaCl2, and the following buffers: 10 mM HEPES (for pH 7.4), 10 mM MES (for pH 6.5-5.5), 10 mM CHES for pH 10, and 10 mM HomoPIPES for (pH 5.0). pH adjusted with HCl. […] The pipette contained intracellular solution made up of 120 mM Cs-aspartate, 15 mM CsCl, 2 mM Mg-ATP, 5 mM EGTA, 2.4 mM CaCl2 (100 nM free Ca^2+), and 10 mM HEPES with a pH of 7.3. All extracellular solution osmolarity was adjusted to 300 mOsm and intracellular osmolarity was adjusted to 290 mOsm.
All data are presented as mean ± SEM unless otherwise noted, and each data point represents an independent replicant. Inhibition of compounds was quantified as ((I2peak-I1)/(I2peak))*100, where I1 is the current immediately before wash-off and I2peak is the maximum recovered current (Supplementary Fig. 2). Hill coefficients were determined by the following equation: Y = Bmax*X^h/(Kd^h + X^h).

[3] = FDA 1-3 = FDA-approved drugs, read-out: Inhibition of pH 5.5-induced currents, screen 2

Oc1ccc(-c2nnc3n2Cc2ccccc2OC3)cc1 [C2.36]
Wash-off compared to WT [1]: faster wash-off | Inhibition (Fig. 5N) ([1]; pH 5.5, 100 µM C2.36 according to legend of Fig. 5M, N, single cells): significantly less inhibition | Kinetics and reversibility of inhibition ([2]; WT DrOTOP1, pH 5.5 stimulus): uniquely slow off-rate; also recorded: slowly inhibited; also recorded: poorly reversible

COCc1nc(-c2nc3c([nH]2)CCCNC3=O)no1 [C42]
Inhibition of pH 5.5-induced currents, screen 1 [2]: 1.242% and 3.465% and 1.504%

Cc1csc(NC(=O)c2nc(C3CC3)n[nH]2)n1 [C38]
Inhibition of pH 5.5-induced currents, screen 1 [2]: 0.5534% and 0.7746% | inhibition at 200 µM ([2]; read-out: Inhibition of pH 5.5-induced currents, screen 1): 0.922%

Cc1nc(=NCCCc2ncc[nH]2)c2c([nH]1)COc1ccccc1C2 [C2.51]
Inhibition of pH 5.5-induced currents, screen 2 ([2]; FDA 1-3 = FDA-approved drugs, listed as 51, 200 µM): 16.6082% and 21.5548% | inhibition at 200 µM [2, 3]: 26.3%

Cc1noc(-c2csc(Cc3ccccc3)n2)n1 [C39]
Inhibition of pH 5.5-induced currents, screen 1 [2]: 1.199% and 1.966% and 0.3901%

Cc1n[nH]c(CNC(=O)c2cnc3ccccc3n2)n1 [C44]
Inhibition of pH 5.5-induced currents, screen 1 [2]: 3.035% and 1.397% and 1.665%

CC(=O)O[C@H]1Cc2ccccc2N(C(N)=O)c2ccccc21 [eslicarbazepine acetate, reference compound]
Inhibition of pH 5.5-induced currents, screen 2 ([2]; FDA 1-3 = FDA-approved drugs, listed as FDA 2, 200 µM): 4.01% and 3.687% | inhibition at 200 µM [2, 3]: 3.48%
